Source: US20230286983A1 (4E Therapeutics, Inc., priority 2020, published 2023)

Columns and labels:
P-gp (human MDR1, ABCB1) = assay: MDCK-MDR1 permeability (blood brain barrier permeability); assay type: in vitro ADME, Canine; conditions: dog; for efflux ratio at 5 μM: MDCK-MDR1, 5 μM, read-out: Efflux ratio (ratio B-A/A-B); for Papp A→B at 5 μM: MDCK-MDR1, Apical to basolateral transport; for Papp A→B at 5 μM / Papp B→A at 5 μM: average of two experiments; for Papp B→A at 5 μM: MDCK-MDR1, Basolateral to apical transport
MNK2 = MNK2 (Homo sapiens, UniProt Q9HBH9); assay: MNK2 substrate phosphorylation assay; assay type: biochemical; conditions: recombinant human kinase
[1] = tested on: eIF4E phosphorylation at Serine 209 in the human embryonic kidney (HEK) 293 cell line; assay: eIF4E phosphorylation in HEK 293 cells (fluorescent plate reader); assay type: cell-based; conditions: eIF4E phosphorylation at Serine 209, 2 hours exposure
Procedure: The ability of MNK inhibitors described herein to inhibit eIF4E phosphorylation at Serine 209 in the human embryonic kidney (HEK) 293 cell line was tested by exposing the cells to compound for 2 hours and then measuring eIF4E phosphorylation with a phosphorylation-specific antibody in a fluorescent plate reader. These experiments were done with HEK-293 cells plated on 96 well plates. Following treatment, cells were fixed with ice cold methanol for 10 min and then washed in 1× phosphate buffered saline (PBS) and the permeabilized with 0.02% Triton X-100 in 10% normal goat serum made up in PBS. Primary antibody was applied overnight at a concentration dilution of 1:2000 (p-eIF4E antibody from Cell Signaling ab76256). Following washing, cells were then exposed to secondary antibody conjugated to alexa-fluor 488 and then visualized on a Syngergy HTX plate reader. Fluorescence for p-eIF4E was measured and normalized to total DAPI fluorescence to determine the percentage of eIF4E phosphorylation in each well. Data were plotted in Graphpad Prism V8 to determine concentration-response effects and calculate IC50 values.

[2] = Liver microsome stability, mouse; assay type: in vitro ADME; conditions: for half-life: mouse, liver microsomes
MNK1 = MNK1 (Homo sapiens, UniProt Q9BUB5); assay: MNK1 substrate phosphorylation assay; assay type: biochemical; conditions: recombinant human kinase
[3] = Liver microsome stability, human; assay type: in vitro ADME; conditions: liver microsomes; for half-life: read-out: Human liver microsomes t1/2
[4] = Liver microsome stability, rat; assay type: in vitro ADME; conditions: Rat liver microsomes (#); for microsomal CLint: read-out: CLint rodent; for half-life: read-out: Rodent liver microsomes t1/2
[5] = mouse liver microsomes, Table 11b, read-out: T1/2

Chain of MNK2 (Q9HBH9 whole entry): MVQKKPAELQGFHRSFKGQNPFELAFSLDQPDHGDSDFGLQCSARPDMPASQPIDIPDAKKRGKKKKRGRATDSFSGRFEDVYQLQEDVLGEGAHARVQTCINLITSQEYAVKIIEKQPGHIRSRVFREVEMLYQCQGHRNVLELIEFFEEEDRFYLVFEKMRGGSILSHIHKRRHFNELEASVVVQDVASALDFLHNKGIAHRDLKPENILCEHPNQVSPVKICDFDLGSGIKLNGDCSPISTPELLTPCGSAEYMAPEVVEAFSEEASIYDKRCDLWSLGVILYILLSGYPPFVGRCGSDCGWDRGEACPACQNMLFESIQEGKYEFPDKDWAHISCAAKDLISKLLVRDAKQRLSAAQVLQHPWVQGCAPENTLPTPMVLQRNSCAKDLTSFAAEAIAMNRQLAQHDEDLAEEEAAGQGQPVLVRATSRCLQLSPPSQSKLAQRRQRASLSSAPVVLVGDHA
Chain of MNK1 (Q9BUB5 whole entry): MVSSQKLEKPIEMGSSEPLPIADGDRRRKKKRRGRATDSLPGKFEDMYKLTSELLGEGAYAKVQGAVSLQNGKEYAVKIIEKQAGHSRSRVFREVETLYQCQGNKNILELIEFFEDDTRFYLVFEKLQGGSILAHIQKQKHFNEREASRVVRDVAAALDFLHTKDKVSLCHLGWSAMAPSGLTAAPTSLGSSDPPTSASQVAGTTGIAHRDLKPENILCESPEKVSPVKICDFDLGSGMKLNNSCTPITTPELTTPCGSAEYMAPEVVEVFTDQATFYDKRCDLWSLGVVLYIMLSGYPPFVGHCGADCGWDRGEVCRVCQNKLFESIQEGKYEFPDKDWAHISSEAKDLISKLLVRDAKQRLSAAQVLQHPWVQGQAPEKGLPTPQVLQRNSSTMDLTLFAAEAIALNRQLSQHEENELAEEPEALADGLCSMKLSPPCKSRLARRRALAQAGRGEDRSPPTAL

## CC1=CC2(CCC1)NC(=O)c1c(C)cc(Nc3cc(N)ncn3)c(=O)n12 (stereo not shown) [Compound 4ET-01-058, 6′-((6-Aminopyrimidin-4-yl)amino)-3,8′-dimethyl-2′H-spiro[cyclohexane-1,3′-imidazo[1,5-a]pyridin]-2-ene-1′,5′-dione]
P-gp (human MDR1, ABCB1)
  efflux ratio at 5 μM: 1.1
  Papp A→B at 5 μM: 57.8 ×10⁻⁶ cm/s
  Papp B→A at 5 μM: 61.2 ×10⁻⁶ cm/s
MNK2
  IC50: 6.5 nM
[1]; Homo sapiens, HEK293, 2 h
  IC50: 10.9 nM
[2]; [5]
  half-life: 7.67 h
MNK1
  IC50: 58.4 nM

## Cc1cc(Nc2cc(NC(=O)C3CC3)ncn2)c(=O)n2c1C(=O)NC2(C)c1cccc(Cl)c1 (stereo not shown) [Compound 4ET-03-035]
MNK2
  IC50: 4.3 nM
[1]; Homo sapiens, HEK293, 2 h
  IC50: 8.7 nM
MNK1
  IC50: 128 nM

## Cc1cc(Nc2cc(NCCO)ncn2)c(=O)n2c1C(=O)NC21CCOCC1 [Compound 4ET-03-011]
MNK2
  IC50: 27.8 nM
[1]; Homo sapiens, HEK293, 2 h
  IC50: 32.4 nM
MNK1
  IC50: 203 nM

## Cc1cc(Nc2cc(NC(=O)C3CC3)ncn2)c(=O)n2c1C(=O)NC2(C)C [Compound 4ET-03-002, N-(6-((3,3,8-Trimethyl-1,5-dioxo-1,2,3,5-tetrahydroimidazo[1,5-a]pyridin-6-yl)amino)pyrimidin-4-yl)cyclopropanecarboxamide]
[1]; Homo sapiens, HEK293
  IC50: 5.3 nM
MNK1
  IC50: 133 nM

## CCC1=CC2(CCC1)NC(=O)c1c(C)cc(Nc3cc(NC(=O)C4CC4)ncn3)c(=O)n12 (stereo not shown) [Compound 4ET-03-039, N-(6-((3-Ethyl-8′-methyl-1′,5′-dioxo-1′,5′-dihydro-2′H-spiro[cyclohexane-1,3′-imidazo[1,5-a]pyridin]-2-en-6′-yl)amino)pyrimidin-4-yl)cyclopropanecarboxamide]
MNK2
  IC50: 1.62 nM
[1]; Homo sapiens, HEK293, 2 h
  IC50: 2.6 nM
MNK1
  IC50: 31.6 nM

## Cc1cc(Nc2cc(NCCNS(C)(=O)=O)ncn2)c(=O)n2c1C(=O)NC2(C)C [Compound 4ET-03-012]
MNK2
  IC50: 273 nM
MNK1
  IC50: 441 nM

## Cc1cc(Nc2cc(NCCN3CCOCC3)ncn2)c(=O)n2c1C(=O)NC21CCOCC1 [Compound 4ET-03-010]
MNK2
  IC50: 84.8 nM
[1]; Homo sapiens, HEK293, 2 h
  IC50: 164 nM
MNK1
  IC50: 382 nM

## Cc1cc(Nc2cc(NC(=O)CN3CCOCC3)ncn2)c(=O)n2c1C(=O)NC21CCCCC1 [Compound 4ET-02-007, N-(6-((8′-Methyl-1′,5′-dioxo-1′,5′-dihydro-2′H-spiro[cyclohexane-1,3′-imidazo[1,5-a]pyridin]-6′-yl)amino)pyrimidin-4-yl)-2-morpholinoacetamide]
P-gp (human MDR1, ABCB1)
  efflux ratio at 5 μM: 5.6
  Papp A→B at 5 μM: 7.3 ×10⁻⁶ cm/s
  Papp B→A at 5 μM: 40.8 ×10⁻⁶ cm/s
[3]
  microsomal CLint: 6.42 µL/min/mg
  half-life: 3.6 h
MNK2
  IC50: 3.6 nM
[2]; Mouse liver microsomes (*), read-out: CLint rodent
  microsomal CLint: 8.7 µL/min/mg
[2]; Mouse liver microsomes (*), Table 11a, read-out: Rodent liver microsomes t1/2
  half-life: 2.65 h
MNK1
  IC50: 89 nM

## Cc1cc(Nc2cc(N3CCN(CCN(C)C)CC3)ncn2)c(=O)n2c1C(=O)NC21CCCCC1 [Compound 4ET-02-002]
MNK2
  MNK2 IC50: inactive
MNK1
  MNK1 IC50: inactive

## Cc1cc(Nc2cc(NC(=O)C3CC3)ncn2)c(=O)n2c1C(=O)NC21Cc2ccc(Cl)cc2C1 (stereo not shown) [Compound 4ET-03-054]
MNK2
  IC50: 5.7 nM
[1]; Homo sapiens, HEK293, 2 h
  IC50: 8.6 nM
MNK1
  IC50: 118 nM

## Cc1cc(Nc2cc(N)ncn2)c(=O)n2c1C(=O)NC21Cc2ccccc2[C@@H]1F (single isomer, unassigned) [Compound 4ET-01-010B, 6-((6-Aminopyrimidin-4-yl)amino)-1′-fluoro-8-methyl-1′,3′-dihydro-2H-spiro[imidazo[1,5-a]pyridine-3,2′-indene]-1,5-dione]
MNK2
  IC50: 96.6 nM
[1]
  IC50: 71.3 nM
MNK1
  IC50: 348 nM

## Cc1cc(Nc2cc(NCCN3CCOCC3)ncn2)c(=O)n2c1C(=O)NC2(C)C [Compound 4ET-03-003]
MNK2
  IC50: 22.6 nM
[1]; Homo sapiens, HEK293, 2 h
  IC50: 110 nM
MNK1
  IC50: 80.2 nM

## Cc1cc(Nc2cc(NCCN3CCOCC3)ncn2)c(=O)n2c1C(=O)NC21CCCCC1 [Compound 4ET-02-005]
P-gp (human MDR1, ABCB1)
  efflux ratio at 5 μM: 9.4
  Papp A→B at 5 μM: 4.5 ×10⁻⁶ cm/s
  Papp B→A at 5 μM: 42.2 ×10⁻⁶ cm/s
[3]
  microsomal CLint: 5.64 µL/min/mg
  half-life: 4.1 h
[4]
  microsomal CLint: 13.6 µL/min/mg
  half-life: 1.7 h
MNK2
  IC50: 10.4 nM
[1]; Homo sapiens, HEK293, 2 h
  IC50: 22.5 nM
MNK1
  IC50: 45.1 nM

## Cc1cc(Nc2cc(NC(=O)C(C)C)ncn2)c(=O)n2c1C(=O)NC21CCOCC1 [Compound 4ET-03-008]
MNK2
  IC50: 7.4 nM
[1]; Homo sapiens, HEK293, 2 h
  IC50: 52.6 nM
MNK1
  IC50: 65.5 nM

## Cc1cc(Nc2cc(NCCN3CCOCC3)ncn2)c(=O)n2c1C(=O)NC21CCCC1 [Compound 4ET-03-006, 8′-Methyl-6′-((6-((2-morpholinoethyl)amino)pyrimidin-4-yl)amino)-2′H-spiro[cyclopentane-1,3′-imidazo[1,5-a]pyridine]-1′,5′-dione]
MNK2
  IC50: 5.9 nM
[1]; Homo sapiens, HEK293, 2 h
  IC50: 53 nM
MNK1
  IC50: 64.6 nM

## Cc1cc(Nc2cc(NC(=O)C3CC3)ncn2)c(=O)n2c1C(=O)NC21CCOc2ccc(Cl)cc21 (stereo not shown) [Compound 4ET-03-036]
MNK2
  IC50: 5.65 nM
[1]; Homo sapiens, HEK293, 2 h
  IC50: 8.6 nM
MNK1
  IC50: 118 nM

## Cc1cc(Nc2cc(NC(=O)C3CC3)ncn2)c(=O)n2c1C(=O)NC21Cc2ccccc2[C@@H]1O (stereo in doubt) [Compound 4ET-03-063, N-(6-((1′-Hydroxy-8-methyl-1,5-dioxo-1,1′,3′,5-tetrahydro-2H-spiro[imidazo[1,5-a]pyridine-3,2′-inden]-6-yl)amino)pyrimidin-4-yl)cyclopropanecarboxamide]
P-gp (human MDR1, ABCB1)
  efflux ratio at 5 μM: 10.2
  Papp A→B at 5 μM: 8.7 ×10⁻⁶ cm/s
  Papp B→A at 5 μM: 64.9 ×10⁻⁶ cm/s
MNK2
  IC50: 3 nM
[1]; Homo sapiens, HEK293, 2 h
  IC50: 17 nM
[2]; [5]
  half-life: 3.7 h
MNK1
  IC50: 35 nM

## Cc1cc(Nc2cc(NC(=O)C(C)C)ncn2)c(=O)n2c1C(=O)NC2(C)C [Compound 4ET-03-001]
MNK2
  IC50: 11.9 nM
[1]; Homo sapiens, HEK293, 2 h
  IC50: 47 nM
MNK1
  IC50: 119 nM

## Cc1cc(Nc2cc(N)ncn2)c(=O)n2c1C(=O)NC21CCCC1 [Compound 4ET-01-001, 6′-((6-Aminopyrimidin-4-yl)amino)-8′-methyl-2′H-spiro[cyclopentane-1,3′-imidazo[1,5-a]pyridine]-1′,5′-dione]
[1]; Homo sapiens, HEK293
  IC50: 10.9 nM

## Cc1cc(Nc2cc(NCCNS(C)(=O)=O)ncn2)c(=O)n2c1C(=O)NC21CCOCC1 [Compound 4ET-03-014]
MNK2
  IC50: 32.8 nM
MNK1
  IC50: 107 nM

## Cc1cc(Nc2cc(NC(=O)C3CC3)ncn2)c(=O)n2c1C(=O)NC21CCCCC1 [Compound 4ET-02-003, N-(6-((8′-Methyl-1′,5′-dioxo-1′,5′-dihydro-2′H-spiro[cyclohexane-1,3′-imidazo[1,5-a]pyridin]-6′-yl)amino)pyrimidin-4-yl)cyclopropanecarboxamide]
[3]
  microsomal CLint: 2.31 µL/min/mg
  half-life: 9.98 h
[4]
  microsomal CLint: 3.75 µL/min/mg
  half-life: 6.17 h
MNK2
  IC50: 4.1 nM
[1]; Homo sapiens, HEK293, 2 h
  IC50: 1.4 nM
MNK1
  IC50: 140 nM

## Cc1cc(Nc2cc(NCCO)ncn2)c(=O)n2c1C(=O)NC2(C)C [Compound 4ET-03-004]
MNK2
  IC50: 7.7 nM
[1]; Homo sapiens, HEK293, 2 h
  IC50: 86.6 nM
MNK1
  IC50: 84.5 nM

## Cc1cc(Nc2cc(NCCO)ncn2)c(=O)n2c1C(=O)NC21CCCC1 [Compound 4ET-03-007, 6′-((6-((2-Hydroxyethyl)amino)pyrimidin-4-yl)amino)-8′-methyl-2′H-spiro[cyclopentane-1,3′-imidazo[1,5-a]pyridine]-1′,5′-dione]
P-gp (human MDR1, ABCB1)
  efflux ratio at 5 μM: 6.3
  Papp A→B at 5 μM: 2.4 ×10⁻⁶ cm/s
  Papp B→A at 5 μM: 15.1 ×10⁻⁶ cm/s
MNK2
  IC50: 4.9 nM
[1]; Homo sapiens, HEK293, 2 h
  IC50: 10 nM
MNK1
  IC50: 96.7 nM

## Cc1cc(Nc2cc(N)ncn2)c(=O)n2c1C(=O)NC21Cc2ccccc2[C@@H]1F (single isomer, unassigned) [Compound 4ET-01-010A, 6-((6-Aminopyrimidin-4-yl)amino)-1′-fluoro-8-methyl-1′,3′-dihydro-2H-spiro[imidazo[1,5-a]pyridine-3,2′-indene]-1,5-dione]
P-gp (human MDR1, ABCB1)
  efflux ratio at 5 μM: 1.5
  Papp A→B at 5 μM: 42.7 ×10⁻⁶ cm/s
  Papp B→A at 5 μM: 63.9 ×10⁻⁶ cm/s
MNK2
  IC50: 9.24 nM
[1]
  IC50: 35.4 nM
[2]; [5]
  half-life: 1.92 h
MNK1
  IC50: 73.4 nM

## Cc1cc(Nc2cc(NCCC(=O)O)ncn2)c(=O)n2c1C(=O)NC21CCCCC1 [Compound 4ET-02-006, 3-((6-((8′-Methyl-1′,5′-dioxo-1′,5′-dihydro-2′H-spiro[cyclohexane-1,3′-imidazo[1,5-a]pyridin]-6′-yl)amino)pyrimidin-4-yl)amino)propanoic acid]
P-gp (human MDR1, ABCB1)
  efflux ratio at 5 μM: 0.8
  Papp A→B at 5 μM: 0.1 ×10⁻⁶ cm/s
  Papp B→A at 5 μM: 0.1 ×10⁻⁶ cm/s
MNK2
  IC50: 14.4 nM
MNK1
  IC50: 346 nM
